One series has as its target αHL pores (Staphylococcus aureus, UniProt P09616).
Series [1] is classed as physicochemical. As for the experimental part: A droplet containing pyranine (10 mM) and DPhPC (1 mg mL^−1) in 1 M KCl, 10 mM Tris·HCl, pH 7.0, was used to form a bilayer with another droplet containing DPhPC (1 mg mL^−1) but no pyranine in the same buffer. The droplets were incubated in a mixture of hexadecane/silicone oil AR20 (1:1 v/v) containing DPhPC (1 mg mL^−1).
An Ag/AgCl electrode, the cis electrode, was inserted into one droplet, and attached to the grounded end of a patch-clamp headstage (Axon Instruments, USA). A second Ag/AgCl electrode (trans) inserted in another droplet was connected to the active end. A positive potential causes the flow of anions from the cis to the trans electrode and of cations from trans to cis. The current was amplified by using a patchclamp amplifier (Axopatch 200B, Axon Instruments, USA), filtered with a low-pass Bessel filter (80 dB/decade) with a corner frequency of 1 kHz, and digitized with a Digidata 1322 A/D converter (Axon Instruments) at a sampling frequency of 20 kHz. Post-acquisition, the data were low-pass filtered at 100 Hz to 400 Hz. The droplet assembly, electrodes, and the headstage were enclosed in a metal box to minimize electrical noise.

The target in a further series is αHL (Staphylococcus aureus, UniProt P09616). The format is biochemical.

Entries after “also recorded” stand apart in the source; their conditions may differ.

Sequence of αHL pores (P09616 27-319 limits assumed): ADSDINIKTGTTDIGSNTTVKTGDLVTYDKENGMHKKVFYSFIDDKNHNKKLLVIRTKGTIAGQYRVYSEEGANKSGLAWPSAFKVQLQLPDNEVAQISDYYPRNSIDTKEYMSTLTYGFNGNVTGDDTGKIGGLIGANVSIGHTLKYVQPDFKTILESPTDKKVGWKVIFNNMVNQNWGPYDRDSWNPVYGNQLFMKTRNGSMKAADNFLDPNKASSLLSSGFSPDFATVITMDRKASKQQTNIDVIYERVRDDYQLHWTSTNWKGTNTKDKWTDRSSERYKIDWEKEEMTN
Sequence of αHL (P09616 27-319 limits assumed): as above

As to xylene cyanol, the “dye transfer through bilayers of the droplet network” value at αHL pores was “did not show any transfer; also recorded: No transfer”.
With `O=S(=O)(O)c1cc(O)c2ccc3c(S(=O)(=O)O)cc(S(=O)(=O)O)c4ccc1c2c34` [pyranine, 8-hydroxypyrene-1,3,6-trisulfonic acid], at αHL pores, the “dye transfer through bilayers of the droplet network” value is reported as “only through droplets containing αHL”, the “time of influx into droplet 4 (fastest influx)” value was at most 13 h, the “time until colour change in all droplets of the second layer” value was found to be 4 days and the “time until αHL-containing droplets turned green” value is reported as around 70 h. For the same compound, the “effect on bilayer stability” value in series [1] (current recordings, pyranine 10 mM) is listed as “did not compromise bilayer stability”. Further, in series [1] (one droplet with pyranine 10 mM, DPhPC 1 mg mL^-1, hexadecane/silicone oil AR20 1:1), the “time the bilayer was stable (capacitance monitoring)” value is listed as “at least 90 min”.
In the case of γ-cyclodextrin [γCD], the “effect on ionic current / electrical signal through αHL pores” value at αHL is “intermittently interrupted; also recorded: interrupted by γCD blockades”.

These data come from US12073966B2 (priority 2012, dated 2024).
